# Data from patent US10632210B2, “Peptidomimetic compounds and antibody-drug conjugates thereof” (Genentech, Inc., priority 2013, dated 2020).
compound,measurement,value
COc1cc2c(cc1OCCCCCC(=O)N1C[C@@H](CCl)c3c1cc(OP(=O)(O)O)c1ccccc31)N(C(=O)OCc1ccc(NC(=O)[C@H](CCCCN)NC(=O)C3(C(=O)NCCCCCN4C(=O)C=CC4=O)CCC3)cc1)C(O)[C@@H]1CCCN1C2=O (stereo partly shown),melting point,98 °C (dec.)
